Assay results from patent US8163728B2, “Pyrazoles” (Hoffmann-La Roche Inc., priority 2009, dated 2012).

Target: T1, GABA A α5 (Homo sapiens, UniProt P18507+P31644)
T1 construct: expressed in transfected cells; host or cells: HEK293 cells, transiently transfected; membranes prepared from cell pellets
Assay: [3H]flumazenil competition binding, human GABA A α5β3γ2 receptors in HEK293 cell membranes
Details: human receptor α5β3γ2 transiently transfected in HEK293; 0.5 nM [3H]flumazenil; 1 hour at 4° C.; means of two determinations; read-out: hKi GABA A α5
Description: The affinity of compounds at GABA A receptor subtypes was measured by competition for [3H]flumazenil (85 Ci/mmol; Roche) binding to HEK293 cells expressing rat (stably transfected) or human (transiently transfected) receptors of composition α1β3γ2, α2β3γ2, α3β3γ2 and α5β3γ2.
Cell pellets were suspended in Krebs-tris buffer (4.8 mM KCl, 1.2 mM CaCl2, 1.2 mM MgCl2, 120 mM NaCl, 15 mM Tris; pH 7.5; binding assay buffer), homogenized by polytron for ca. 20 sec on ice and centrifuged for 60 min at 4° C. (50000 g; Sorvall, rotor: SM24=20000 rpm). The cell pellets were re-suspended in Krebs-tris buffer and homogenized by polytron for ca. 15 sec on ice. Protein was measured (Bradford method, Bio-Rad) and aliquots of 1 mL were prepared and stored at −80° C.
Assays were incubated to equilibrium for 1 hour at 4° C. and harvested onto GF/C uni-filters (Packard) by filtration using a Packard harvester and washing with ice-cold wash buffer (50 mM Tris; pH 7.5). After drying, filter-retained radioactivity was detected by liquid scintillation counting. Ki values were calculated using Excel-Fit (Microsoft) and are the means of two determinations.

| Compound | Ki [nM] |
| --- | --- |
| CCCCc1noc(C)c1COc1cc(C(=O)NCC(F)(F)F)[nH]n1 [Example 31, 5-(3-Butyl-5-methyl-isoxazol-4-ylmethoxy)-2H-pyrazole-3-carboxylic acid (2,2,2-trifluoro-ethyl)-amide] | 6.4 |
| Cc1onc(-c2ccccn2)c1CNc1cc(C(=O)NC(C)C)n(C)n1 [Example 159, N-isopropyl-1-methyl-3-((5-methyl-3-(pyridin-2-yl)isoxazol-4-yl)methylamino)-1H-pyrazole-5-carboxamide] | 39.9 |
| Cn1nc(OCc2c(-c3ccc(F)cc3)noc2CO)cc1C(=O)N1CC2(COC2)C1 [Example 99, {5-[3-(4-Fluoro-phenyl)-5-hydroxymethyl-isoxazol-4-ylmethoxy]-2-methyl-2H-pyrazol-3-yl}-(2-oxa-6-aza-spiro[3.3]hept-6-yl)-methanone] | 24 |
| CCNC(=O)c1cc(/C=C/c2c(-c3ccc(F)cc3)noc2C)n[nH]1 [Example 141, 5-{(E)-2-[3-(4-Fluoro-phenyl)-5-methyl-isoxazol-4-yl]vinyl}-2H-pyrazole-3-carboxylic acid ethylamide] | 8.1 |
| CCCCc1noc(C)c1COc1cc(C(=O)NN(C)C)[nH]n1 [Example 38, 5-(3-Butyl-5-methyl-isoxazol-4-ylmethoxy)-2H-pyrazole-3-carboxylic acid N′,N′-dimethylhydrazide] | 38.7 |
| Cc1onc(-c2ccc(F)cn2)c1CNc1cc(C(=O)N2CC3(COC3)C2)n(C)n1 [Example 168, (3-((3-(5-Fluoropyridin-2-yl)-5-methylisoxazol-4-yl)methylamino)-1-methyl-1H-pyrazol-5-yl)(2-oxa-6-azaspiro[3.3]heptan-6-yl)methanone] | 77.7 |
| Cc1onc(-c2ccc(F)cc2)c1/C=C/c1cc(C(=O)NC(C)CO)n(C)n1 (stereo not shown) [Example 130, 5-{(E)-2-[3-(4-Fluoro-phenyl)-5-methyl-isoxazol-4-yl]vinyl}-2-methyl-2H-pyrazole-3-carboxylic acid (2-hydroxy-1-methyl-ethyl)-amide] | 0.9 |
| Cc1onc(-c2ccc(F)cc2)c1COc1cc(C(=O)NN(C)C)[nH]n1 [Example 11, 5-[3-(4-Fluoro-phenyl)-5-methyl-isoxazol-4-ylmethoxy]-2H-pyrazole-3-carboxylic acid N′,N′-dimethyl-hydrazide] | 4.9 |
| Cc1onc(-c2ccc(F)cc2)c1COc1cc(C(=O)NC2CCOCC2)[nH]n1 [Example 13, 5-[3-(4-Fluoro-phenyl)-5-methyl-isoxazol-4-ylmethoxy]-2H-pyrazole-3-carboxylic acid (tetrahydro-pyran-4-yl)-amide] | 0.5 |
| Cc1onc(-c2ccc(F)cc2)c1CNc1cc(C(=O)NC(C)C)[nH]n1 [Example 154, 5-{[3-(4-Fluoro-phenyl)-5-methyl-isoxazol-4-ylmethyl]-amino}-2H-pyrazole-3-carboxylic acid isopropylamide] | 13 |
| CCCCc1noc(CO)c1COc1cc(C(=O)NCC(F)(F)F)n(C)n1 [Example 112, 5-(3-Butyl-5-hydroxymethyl-isoxazol-4-ylmethoxy)-2-methyl-2H-pyrazole-3-carboxylic acid (2,2,2-trifluoro-ethyl)-amide] | 45.1 |
| Cn1nc(OCc2c(-c3ccc(Cl)cc3)noc2CO)cc1C(=O)NC1CC1 [Example 105, 5-[3-(4-Chloro-phenyl)-5-hydroxymethyl-isoxazol-4-ylmethoxy]-2-methyl-2H-pyrazole-3-carboxylic acid cyclopropylamide] | 5.4 |
| CCC(CO)NC(=O)c1cc(OCc2c(-c3ccc(F)cc3)noc2C)nn1C (single isomer, unassigned; (+)) [Example 70, (+)-5-[3-(4-Fluoro-phenyl)-5-methyl-isoxazol-4-ylmethoxy]-2-methyl-2H-pyrazole-3-carboxylic acid ((S or R)-1-hydroxymethyl-propyl)-amide] | 16.7 |
| Cc1onc(-c2ccccc2)c1COc1cc(C(=O)NCCO)n(C)n1 [Example 42, 2-Methyl-5-(5-methyl-3-phenyl-isoxazol-4-ylmethoxy)-2H-pyrazole-3-carboxylic acid (2-hydroxy-ethyl)-amide] | 15.9 |
| Cc1onc(-c2ccccc2)c1COc1cc(C(N)=O)[nH]n1 [Example 7, 5-(5-Methyl-3-phenyl-isoxazol-4-ylmethoxy)-2H-pyrazole-3-carboxylic acid amide] | 36.3 |
| Cc1onc(-c2ccccn2)c1COc1cc(C(=O)NC(C)C)n(C)n1 [Example 78, 2-Methyl-5-(5-methyl-3-pyridin-2-yl-isoxazol-4-ylmethoxy)-2H-pyrazole-3-carboxylic acid isopropylamide] | 30.2 |

| Compound | Ki [nM] |
| --- | --- |
| Cc1onc(-c2ccc(F)cc2)c1CNc1cc(C(N)=O)[nH]n1 [Example 153, 5-{[3-(4-Fluoro-phenyl)-5-methyl-isoxazol-4-ylmethyl]-amino}-2H-pyrazole-3-carboxylic acid amide] | 43.4 |
| Cn1nc(OCc2c(-c3ccc(Cl)cc3)noc2CO)cc1C(=O)NCC(F)(F)F [Example 103, 5-[3-(4-Chloro-phenyl)-5-hydroxymethyl-isoxazol-4-ylmethoxy]-2-methyl-2H-pyrazole-3-carboxylic acid (2,2,2-trifluoro-ethyl)-amide] | 5.7 |
| Cc1onc(-c2ccc(F)cc2)c1COc1cc(C(=O)NN(C)C)n(C)n1 [Example 48, 5-[3-(4-Fluoro-phenyl)-5-methyl-isoxazol-4-ylmethoxy]-2-methyl-2H-pyrazole-3-carboxylic acid N′,N′-dimethyl-hydrazide] | 23.3 |
| Cn1nc(OCc2c(-c3ccc(Cl)cc3)noc2CO)cc1C(=O)NC1CCOCC1 [Example 101, 5-[3-(4-Chloro-phenyl)-5-hydroxymethyl-isoxazol-4-ylmethoxy]-2-methyl-2H-pyrazole-3-carboxylic acid (tetrahydro-pyran-4-yl)-amide] | 0.9 |
| Cc1onc(-c2ccc(F)cc2)c1/C=C/c1cc(C(=O)NC(C)CO)[nH]n1 (stereo not shown) [Example 139, 5-{(E)-2-[3-(4-Fluoro-phenyl)-5-methyl-isoxazol-4-yl]-vinyl}-2H-pyrazole-3-carboxylic acid (2-hydroxy-1-methyl-ethyl)-amide] | 3 |
| Cc1onc(-c2ccc(F)cn2)c1CNc1cc(C(=O)NC2(C)COC2)n(C)n1 [Example 167, 3-((3-(5-Fluoropyridin-2-yl)-5-methylisoxazol-4-yl)methylamino)-1-methyl-N-(3-methyloxetan-3-yl)-1H-pyrazole-5-carboxamide] | 16.2 |
| Cc1onc(-c2ccc(F)cn2)c1COc1cc(C(=O)NC2CCOCC2)n(C)n1 [Example 84, 5-[3-(5-Fluoro-pyridin-2-yl)-5-methyl-isoxazol-4-ylmethoxy]-2-methyl-2H-pyrazole-3-carboxylic acid (tetrahydro-pyran-4-yl)-amide] | 3.5 |
| CC(C)NC(=O)c1cc(OCc2c(-c3ccc(F)cc3)noc2CO)nn1C [Example 92, 5-[3-(4-Fluoro-phenyl)-5-hydroxymethyl-isoxazol-4-ylmethoxy]-2-methyl-2H-pyrazole-3-carboxylic acid isopropylamide] | 9.5 |
| Cc1onc(-c2ccccn2)c1CNc1cc(C(=O)NC2CCOCC2)n(C)n1 [Example 160, 2-Methyl-5-[(5-methyl-3-pyridin-2-yl-isoxazol-4-ylmethyl)-amino]-2H-pyrazole-3-carboxylic acid (tetrahydro-pyran-4-yl)-amide] | 25.4 |
| Cc1onc(-c2ccc(F)cn2)c1CNc1cc(C(=O)NCC2CC2)n(C)n1 [Example 166, N-(Cyclopropylmethyl)-3-((3-(5-fluoropyridin-2-yl)-5-methylisoxazol-4-yl)methylamino)-1-methyl-1H-pyrazole-5-carboxamide] | 55.6 |
| Cc1onc(-c2ccc(F)cn2)c1COc1cc(C(=O)NCCO)n(C)n1 [Example 83, 5-[3-(5-Fluoro-pyridin-2-yl)-5-methyl-isoxazol-4-ylmethoxy]-2-methyl-2H-pyrazole-3-carboxylic acid (2-hydroxy-ethyl)-amide] | 11 |
| Cc1onc(-c2ccc(F)cc2)c1CNc1cc(C(=O)NC2CCOCC2)n(C)n1 [Example 147, 5-{[3-(4-Fluoro-phenyl)-5-methyl-isoxazol-4-ylmethyl]-amino}-2-methyl-2H-pyrazole-3-carboxylic acid (tetrahydro-pyran-4-yl)-amide] | 4.7 |
| Cc1onc(-c2ccccc2)c1COc1cc(C(=O)NC2CCOC2)n(C)n1 (racemic) [Example 43, Rac-2-Methyl-5-(5-methyl-3-phenyl-isoxazol-4-ylmethoxy)-2H-pyrazole-3-carboxylic acid (tetrahydro-furan-3-yl)-amide] | 9.7 |
| CCCCc1noc(C)c1COc1cc(C(=O)NC(C)CO)n(C)n1 (racemic) [Example 87, Rac-5-(3-Butyl-5-methyl-isoxazol-4-ylmethoxy)-2-methyl-2H-pyrazole-3-carboxylic acid (2-hydroxy-1-methyl-ethyl)-amide] | 44.7 |
| Cc1onc(-c2ccc(F)cn2)c1COc1cc(C(=O)NC(C)C)[nH]n1 [Example 21, 5-[3-(5-Fluoro-pyridin-2-yl)-5-methyl-isoxazol-4-ylmethoxy]-2H-pyrazole-3-carboxylic acid isopropylamide] | 2.5 |
